# Data published in US20140018545A1, “Inhibitors of Dipeptidylpeptidase IV” (Trustees of Tufts College, priority 2004, published 2014).
# Where two headings read alike, the source gives them in different places.
# Tests used:
# DPIV [1] = molecular target: T1, DPIV (Homo sapiens, UniProt P27487); assay: DPIV inhibition assay (L-alanyl-L-proline-para-nitroanilide substrate, absorbance at 410 nm)
# Experimental: (§1) The inhibitor solution was prepared by dissolving 3-5 mg of inhibitor in pH 2 solution (0.01 N HCl), such that the concentration of the solution was equal to 1 mg/10 μL. A 10 μL sample of this solution was then added to 990 μL of pH 8 buffer (0.1 M HEPES, 0.14 M NaCl), and the solution was allowed to stand at room temperature overnight.
# (§2) The substrate solution was prepared by dissolving 2.0 mg of L-alanyl-L-proline-para-nitroanilide into 20 mL of pH 8 buffer.
# (§3) 250 μL of enzyme solution was added to well #B1 to #H1, #A2 to #H2, and #A3 to #H3 of a 96 well plate, while well #A1 received 250 μL of pH 8 buffer instead of enzyme solution. 90 μL of pH 8 buffer was then added to column 5 (from well #A5 to #H5).
# (§4) A 1:10 dilution was then performed by adding inhibitor solution to #A5 and the solution was mixed well before transferring 10 μL of this solution from #A5 to #B5. The solution in #B5 was then mixed well before transferring 10 μL of this solution from #B5 to #C5. The solution in #C5 was then mixed well before transferring 10 μL of this solution from #C5 to #D5. The solution in #D5 was then mixed well before transferring 10 μL of this solution from #D5 to #E5. The solution in #E5 was then mixed well before transferring 10 μL of this solution from #E5 to #F5. The solution in #F5 was then mixed well before transferring 10 μL of this solution from #F5 to #G5. The solution in #G5 was then mixed well before transferring 10 μL of this solution from #G5 to #H5.
# (§5) A 30 μL aliquot was then transferred from #H5 to #H3 for row H, and the contents were mixed well. The analogous procedure was repeated for rows G, F, E, D, C, B, and A sequentially. The plate was then shaken on a plate shaker for 5 minutes before allowing the plate to incubate at room temperature for an additional 5 minutes.
# (§6) Once the plate had been allowed to incubate, 30 μL of substrate was added to each well except well #A1. The plate was then placed on a plate shaker for 5 minutes before allowing the plate to incubate at room temperature for 25 minutes. The absorbance was then immediately read at a wavelength of 410 nm.
# DP9 = DP9 (Homo sapiens, UniProt Q86TI2); assay: Dipeptidyl peptidase 9 inhibition assay (Example 1 assay with DP9 substituted for DPIV); type: biochemical; details: for DP9/DPIV ratio: ratio of IC50 values, selectivity for DPIV
# Experimental: In this example, the assay was conducted for DPIV and DP9. The ratio of IC50 values for each tested compound was calculated in order to determine the selectivity for the DPIV isoform. IC50 values were measured at the same pH throughout the assay.
# DPIV [2] = molecular target: T1, DPIV; details: pH 8
# Experimental: as §1, §2, §3, §4, §5, §6
# DP8 = DP8 (Homo sapiens, UniProt Q6V1X1); assay: Dipeptidyl peptidase 8 inhibition assay (Example 1 assay with DP8 substituted for DPIV); type: biochemical; details: at the pH values tested
# Experimental: L-Ala-[5-(HOCH2)-2-boroPro] was also tested to determine its inhibition of dipeptidyl peptidases 8 and 9 (DP8 and DP9). The assay is the same as that described in Example 1, except that DP8 or DP9 was substituted for DPIV.
# [3] = read-out: DPIV IC50, Example 6, same pH throughout the assay (pH not stated)
# [4] = Example 6, same pH throughout the assay (pH not stated), read-out: DP9 IC50
# Chain of DP9 (Q86TI2 whole entry, species assumed, canonical isoform): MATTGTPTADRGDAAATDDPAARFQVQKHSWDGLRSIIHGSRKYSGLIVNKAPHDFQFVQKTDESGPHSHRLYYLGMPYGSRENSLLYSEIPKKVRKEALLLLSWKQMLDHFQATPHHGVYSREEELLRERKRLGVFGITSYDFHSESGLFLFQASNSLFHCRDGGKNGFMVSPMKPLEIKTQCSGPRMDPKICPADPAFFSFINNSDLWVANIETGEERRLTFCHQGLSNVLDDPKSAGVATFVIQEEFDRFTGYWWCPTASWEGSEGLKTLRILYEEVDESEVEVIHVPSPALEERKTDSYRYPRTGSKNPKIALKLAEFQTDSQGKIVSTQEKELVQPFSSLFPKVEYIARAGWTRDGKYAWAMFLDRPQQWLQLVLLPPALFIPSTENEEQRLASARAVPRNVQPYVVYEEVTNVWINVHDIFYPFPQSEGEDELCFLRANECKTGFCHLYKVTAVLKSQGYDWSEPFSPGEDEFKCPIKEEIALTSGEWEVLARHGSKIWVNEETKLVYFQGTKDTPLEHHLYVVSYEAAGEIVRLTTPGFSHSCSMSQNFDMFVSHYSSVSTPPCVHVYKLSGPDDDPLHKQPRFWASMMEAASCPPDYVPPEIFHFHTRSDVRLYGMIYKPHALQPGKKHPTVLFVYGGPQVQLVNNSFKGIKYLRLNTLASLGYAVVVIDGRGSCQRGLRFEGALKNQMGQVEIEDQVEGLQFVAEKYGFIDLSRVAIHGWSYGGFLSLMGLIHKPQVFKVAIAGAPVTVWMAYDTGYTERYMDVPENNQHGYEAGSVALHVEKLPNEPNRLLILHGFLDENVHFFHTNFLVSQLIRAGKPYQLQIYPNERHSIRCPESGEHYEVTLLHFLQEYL
# T1 sequence (P27487 whole entry): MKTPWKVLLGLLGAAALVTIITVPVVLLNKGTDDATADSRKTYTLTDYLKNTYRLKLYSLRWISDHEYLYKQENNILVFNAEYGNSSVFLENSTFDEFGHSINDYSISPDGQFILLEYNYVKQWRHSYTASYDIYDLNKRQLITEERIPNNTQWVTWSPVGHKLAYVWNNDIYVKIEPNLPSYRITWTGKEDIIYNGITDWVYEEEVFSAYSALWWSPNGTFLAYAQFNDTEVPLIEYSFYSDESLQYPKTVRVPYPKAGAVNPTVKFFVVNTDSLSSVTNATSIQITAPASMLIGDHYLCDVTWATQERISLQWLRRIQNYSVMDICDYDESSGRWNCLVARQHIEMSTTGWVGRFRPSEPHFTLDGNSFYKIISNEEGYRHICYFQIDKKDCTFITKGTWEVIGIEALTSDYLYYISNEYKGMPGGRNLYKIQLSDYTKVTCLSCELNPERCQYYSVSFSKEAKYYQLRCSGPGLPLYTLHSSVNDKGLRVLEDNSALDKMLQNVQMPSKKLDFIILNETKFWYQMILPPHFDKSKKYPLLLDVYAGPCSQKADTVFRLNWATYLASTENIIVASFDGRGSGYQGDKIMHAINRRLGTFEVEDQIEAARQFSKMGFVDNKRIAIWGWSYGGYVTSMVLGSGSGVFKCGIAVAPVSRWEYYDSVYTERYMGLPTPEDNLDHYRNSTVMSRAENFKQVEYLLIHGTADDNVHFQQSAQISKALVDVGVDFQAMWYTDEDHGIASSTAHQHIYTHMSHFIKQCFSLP
# Chain of DP8 (Q6V1X1 whole entry, species assumed): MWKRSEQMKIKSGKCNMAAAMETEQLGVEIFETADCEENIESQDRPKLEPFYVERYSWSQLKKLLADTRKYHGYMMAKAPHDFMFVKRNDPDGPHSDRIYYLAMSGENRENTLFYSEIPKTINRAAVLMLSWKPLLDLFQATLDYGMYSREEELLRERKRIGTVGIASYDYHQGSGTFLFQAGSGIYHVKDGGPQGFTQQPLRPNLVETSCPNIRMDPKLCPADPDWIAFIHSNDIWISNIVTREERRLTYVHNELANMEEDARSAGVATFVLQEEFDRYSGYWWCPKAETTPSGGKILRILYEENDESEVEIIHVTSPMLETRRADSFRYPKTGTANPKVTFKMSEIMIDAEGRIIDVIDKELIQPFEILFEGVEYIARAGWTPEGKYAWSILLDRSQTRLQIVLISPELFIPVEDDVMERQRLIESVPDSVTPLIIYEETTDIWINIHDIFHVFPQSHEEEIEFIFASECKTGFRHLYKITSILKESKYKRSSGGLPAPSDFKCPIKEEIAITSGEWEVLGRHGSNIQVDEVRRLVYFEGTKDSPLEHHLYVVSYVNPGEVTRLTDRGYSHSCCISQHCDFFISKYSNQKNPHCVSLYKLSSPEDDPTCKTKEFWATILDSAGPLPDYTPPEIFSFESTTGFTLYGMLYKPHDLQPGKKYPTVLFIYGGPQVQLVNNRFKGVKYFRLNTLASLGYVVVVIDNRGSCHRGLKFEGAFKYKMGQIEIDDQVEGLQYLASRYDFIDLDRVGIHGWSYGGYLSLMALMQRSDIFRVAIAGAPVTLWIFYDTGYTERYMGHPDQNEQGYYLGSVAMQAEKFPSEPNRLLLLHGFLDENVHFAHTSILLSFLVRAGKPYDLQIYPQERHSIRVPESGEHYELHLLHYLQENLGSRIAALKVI
IC50 (DPIV [1]; [3]) [nM],IC50 (DP9; [4]) [µM],DP9/DPIV ratio (DP9),Compound,also measured
10,0.007,0.70,Arg-boroEtGly,–
–,0.824,412,N=C(N)NCCC[C@H](N)C(=O)N1CCC[C@H]1B(O)O [Arg-boroPro],"IC50 (DPIV [1]; DPIV IC50 (nM), Example 6, same pH throughout the assay (pH not stated)): 2 nM"
–,–,–,CC[C@H](NC(=O)[C@@H](N)CCC(=O)O)B(O)O [Glu-boroEtg],"IC50 (DPIV [1]; IC50, DPIV, pH 8): 49 nM"
797000,5000,6.28,C[C@H](NC(=O)[C@@H](N)CC(=O)O)B(O)O [Asp-boroAla],–
–,–,–,CC1CC[C@@H](B(O)O)N1C(=O)[C@H](C)N (stereo partly drawn) [L-Ala-5-Me-boroPro],"IC50 (DPIV [1]; IC50 at pH 2, DPIV, pH 2): 11 nM; IC50 (DPIV [1]; IC50 at pH 8, DPIV, pH 8): 15400 nM"
8,0.023,2.88,C[C@H](NC(=O)[C@@H](N)CCCN=C(N)N)B(O)O [Arg-boroAla],–
40,28000,"700,000",C[C@H](N)C(=O)N1C(CO)CCC1B(O)O (stereo partly drawn) [L-Ala-[5-(HOCH2)-2-boroPro]],"IC50 (DP8): > 70 µM; IC50 (DPIV [1]; read-out: IC50 at pH 2, DPIV, pH 2): 21.9 nM; IC50 (DPIV [1]; read-out: IC50 at pH 8, DPIV, pH 8): 12900 nM; IC50 (DP9; DP9, at the pH values tested, read-out: IC50): > 70 µM; selectivity for DPIV over DP9 (DP9; in words, based on the IC50 ratios of Example 6): highly selective for DPIV"

Compound,IC50 (DPIV [1]; [3]) [nM],IC50 (DP9; [4]) [µM],DP9/DPIV ratio (DP9),also measured
N[C@@H](CCC(=O)O)C(=O)N1CCC[C@H]1B(O)O [Glu-boroPro],3,–,–,IC50 (DPIV [2]): 2.4 µM
